US20260184669A1, “LIPID COMPOUND AND COMPOSITION FOR DELIVERY OF ACTIVE SUBSTANCE” (KOREA RESEARCH INSTIUTE OF BIOSCIENCE AND BIOTECHNOLOGY, priority 2022, published 2026)

Assays:
[1] = system: CCL3 mRNA level in HEK-293T cells; details: human
[2] = mRNA encapsulation efficiency (Quant-IT RiboGreen RNA assay); type: physicochemical; details: mRNA encapsulation efficiency of mRNA-LNP made with the ionizable lipid; average of two measurements
Experimental: The mRNA encapsulation efficiency (EE, %) of LNPs containing mRNA was measured using the Quant-IT™ RiboGreen® RNA assay kit (Invitrogen, USA).
The diluted samples were added to each well of a 96-well plate. Group A (without Triton X-100) was supplemented with 50 μL of 1×TE buffer, while Group B (with Triton X-100) was supplemented with 50 μL of 1×TE buffer containing 2% Triton-X 100. To release the encapsulated mRNA, the LNPs were treated with Triton-X 100 and incubated at 37° C. for 10 minutes. Subsequently, 100 μL of ribogreen reagent was added to each well. The fluorescence intensities of Group A and Group B were measured using a multi-plate reader (λex 480 nm, λem 520 nm), and mRNA encapsulation efficiency (%) was calculated using Equation 1 below. The encapsulation efficiency for each LNP was determined as the average of two independent measurements.

female C57BL/6 mice = experiment: Protein expression efficiency of fLuc mRNA-LNPs after intramuscular injection (IVIS whole-body luminescence); type: in vivo; details: for Total flux 1 hour / Total flux 3 hours / Total flux 6 hours / Total flux 48 hours / Total flux 72 hours / Total flux: fLuc mRNA-LNP, intramuscular injection, luminescence at injection site, mice; for Total flux 1 hour: 1 hour after administration; for Total flux 3 hours: 3 hours after administration; for Total flux 6 hours: 6 hours after administration; for Total flux 48 hours: 48 hours after administration; for Total flux 72 hours: 72 hours after administration; for Total flux: after administration; for Fold increase in total flux at 3 h, MC3: relative to control LNP formulated with MC3; for Fold increase in total flux at 3 h, MC3 / Fold increase in total flux at 3 h, SM-102: 3 hours after intramuscular injection; for Fold increase in total flux at 3 h, SM-102: relative to control LNP formulated with SM-102
Experimental: fLuc mRNA-LNPs formulated using various ionizable lipids were prepared according to the method described in Example 27 and administered in vivo via intramuscular (I. M.) or intravenous (IV.) injection to compare the resulting protein expression efficiency in vivo. As a control, EGFP mRNA-LNPs formulated with commercially available ionizable lipids MC3 or SM-102 were used. All mRNA-LNPs were administered at equal mRNA doses per body weight across different concentration groups (n≥4).
Specifically, the dose of mRNA-LNPs was adjusted to 0.1-0.5 mg/kg of body weight, and the formulation was administered via I.M. or I.V. injection to female C57BL/6 mice (6-10 weeks old, Orient Bio, Korea) Subsequently, […], whole-body luminescence images were acquired using an in vivo imaging system (IVIS Lumina III, PerkinElmer, Walzam, MA, USA). To assess protein expression levels, 200 μL of D-luciferin (15 mg/mL) was administered via intraperitoneal (I.P.) injection 10 minutes prior to imaging. During image acquisition, the animals were anesthetized by inhalation of 3% isoflurane in 97% medical grade oxygen. In addition, the acquired luminescence images were quantitatively analyzed using imaging software (Living Image Software Version 4.4; PerkinElmer, USA).
After intramuscular injection of the fLuc mRNA-LNPs, the luminescence intensity at the injection site was measured over time.
Furthermore, the luminescence intensity at the injection site 3 hours after intramuscular injection was measured, and the relative protein expression efficiency was compared to that of control LNPs formulated with MC3 or SM-102.

[3] = system: IL-6 mRNA level in HEK-293T cells; details: human
[4] = Size, polydispersity index and surface charge of mRNA-LNP (Malvern Zetasizer Nano ZS90); type: physicochemical; details: for PDI / size (nm) Number: mRNA-LNP made with the ionizable lipid at its optimal formulation (Table 2); for size (nm) Number: diluted with PBS to 1 μg/mL mRNA; for Zeta (mV): surface charge of mRNA-LNP made with the ionizable lipid at its optimal formulation (Table 2)
Experimental: Each mRNA-LNPs produced in Example 27 was diluted with PBS to a final mRNA concentration of 1 μg/mL. The size, polydispersity index (PDI), and surface charge of the mRNA-LNPs were then measured using a Malvern Zetasizer Nano ZS90 (Malvern Instruments, UK).
For particles intended for systemic administration, such as via blood vessels, the particle size must be less than 200 nm in order to pass through the endothelial capillaries of the liver. In addition, the size distribution is considered uniform only when the PDI is 0.3 or less, which enables consistent and efficient therapeutic effects (Non-patent document 3 [Danaei, M. et al). Pharmaceutics 2018, 10, 57]).

[5] = system: IL-1β mRNA level in HEK-293T cells; details: human
[6] = system: CCL2 mRNA level in HEK-293T cells; details: human
[7] = Stability of mRNA-LNPs according to storage temperature and duration; type: physicochemical; details: for Normalized EE % D-1 / Size (nm) D-1 / PDI D-1: day 1; for Normalized EE % D-7 / PDI D-7 / Size (nm) D-7: day 7; for Normalized EE % D-30 / PDI D-30 / Size (nm) D-30: day 30
Experimental: Stability of fLuc mRNA-LNPs produced using various ionizable lipids according to the method of Example 27, was assessed by storing the LNPs at 4° C. and 25° C. At 1, 7, and 30 days post-manufacture, the size, PDI, and encapsulation efficiency (EE) of each mRNA-LNPs samples were measured using the methods described in Experimental Examples 2 and 3.

Structure (SMILES)	EE (%) [2] [%]	Total flux 1 hour (female C57BL/6 mice)	Total flux 3 hours (female C57BL/6 mice)	Total flux 6 hours (female C57BL/6 mice)	Total flux 48 hours (female C57BL/6 mice)	Total flux 72 hours (female C57BL/6 mice)	Total flux (female C57BL/6 mice)	Fold increase in total flux at 3 h, MC3 (female C57BL/6 mice)	Fold increase in total flux at 3 h, SM-102 (female C57BL/6 mice)	PDI [4]	size (nm) Number [4] [nm]	Zeta (mV) [4] [mV]	Normalized EE % D-1 ([7]; fLuc mRNA-LNP stored at 4° C.) [%]	Size (nm) D-1 ([7]; fLuc mRNA-LNP stored at 4° C.) [nm]	Normalized EE % D-7 ([7]; fLuc mRNA-LNP stored at 4° C.) [%]	PDI D-7 ([7]; fLuc mRNA-LNP stored at 4° C.)	Size (nm) D-7 ([7]; fLuc mRNA-LNP stored at 4° C.) [nm]	Normalized EE % D-30 ([7]; fLuc mRNA-LNP stored at 4° C.) [%]	PDI D-30 ([7]; fLuc mRNA-LNP stored at 4° C.)	Size (nm) D-30 ([7]; fLuc mRNA-LNP stored at 4° C.) [nm]	further results
CCCCCCCCCCCOC(=O)CCCCCN(CCCCCCCC(=O)OC(CCCCCCCC)CCCCCCCC)CC(O)CCCCNC(=O)c1[nH]ccc1O (stereo not drawn) [Compound 21, Heptadecan-9-yl 8-((2-hydroxy-6-(3-hydroxy-1H-pyrrole-2-carboxamido)hexyl)(6-oxo-6-(undecyloxy)hexyl)amino)octanoate]	92	1.98E+07	1.29E+08	9.56E+07	3.51E+06	1.66E+06	1.25E+07	10.42	1.14	0.155	112	−4.55	–	–	–	–	–	–	–	–	CCL3 Average [1]: 1.82; protein expression compared to the control group (SM-102) (female C57BL/6 mice; 3 hours post intramuscular injection, in words): significantly higher protein expression; IL-6 Average [3]: 1.39; IL-1β Average [5]: 1.18; CCL2 Average [6]: 0.63
CCCCCCCCCCCOC(=O)CCCCCN(CCCCCCCC(=O)OC(CCCCCCCC)CCCCCCCC)CC(O)CCCCNC(=O)c1cncn1C (stereo not drawn) [Compound 38, Heptadecan-9-yl 8-((2-hydroxy-6-(1-methyl-1H-imidazole-5-carboxamido)hexyl)(6-oxo-6-(undecyloxy)hexyl)amino)octanoate]	88	2.19E+07	4.19E+07	1.47E+07	7.89E+05	5.32E+05	2.13E+06	3.39	0.37	0.132	142	−4.28	88.5	142.2	91.1	0.086	141.1	87.6	0.086	147.3	Normalized EE % D-1 ([7]; fLuc mRNA-LNP stored at 25° C.): 89.5%; PDI D-1 ([7]; fLuc mRNA-LNP stored at 25° C.): 0.132; Size (nm) D-1 ([7]; fLuc mRNA-LNP stored at 25° C.): 142.2 nm; Normalized EE % D-7 ([7]; fLuc mRNA-LNP stored at 25° C.): 88.0%; PDI D-7 ([7]; fLuc mRNA-LNP stored at 25° C.): 0.093; Size (nm) D-7 ([7]; fLuc mRNA-LNP stored at 25° C.): 140.4 nm; Normalized EE % D-30 ([7]; fLuc mRNA-LNP stored at 25° C.): 86.1%; PDI D-30 ([7]; fLuc mRNA-LNP stored at 25° C.): 0.041; Size (nm) D-30 ([7]; fLuc mRNA-LNP stored at 25° C.): 152.0 nm
CCCCCCCCCCCOC(=O)CCCCCN(CCCCCCCC(=O)OC(CCCCCCCC)CCCCCCCC)CC(O)CCCCNC(=O)c1cnc(O)n1C (stereo not drawn) [Compound 40, Heptadecan-9-yl 8-((2-hydroxy-6-(2-hydroxy-1-methyl-1H-imidazole-5-carboxamido)hexyl)(6-oxo-6-(undecyloxy)hexyl)amino)octanoate]	92	7.92E+06	1.50E+07	6.60E+06	1.10E+06	8.29E+05	6.46E+05	1.22	0.13	0.154	107	−1.73	92.3	106.8	89.0	0.106	155.6	87.5	0.044	146.2	Normalized EE % D-1 ([7]; fLuc mRNA-LNP stored at 25° C.): 92.3%; PDI D-1 ([7]; fLuc mRNA-LNP stored at 25° C.): 0.154; Size (nm) D-1 ([7]; fLuc mRNA-LNP stored at 25° C.): 106.8 nm; Normalized EE % D-7 ([7]; fLuc mRNA-LNP stored at 25° C.): 90.9%; PDI D-7 ([7]; fLuc mRNA-LNP stored at 25° C.): 0.112; Size (nm) D-7 ([7]; fLuc mRNA-LNP stored at 25° C.): 146.8 nm; Normalized EE % D-30 ([7]; fLuc mRNA-LNP stored at 25° C.): 89.3%; PDI D-30 ([7]; fLuc mRNA-LNP stored at 25° C.): 0.091; Size (nm) D-30 ([7]; fLuc mRNA-LNP stored at 25° C.): 144.8 nm
